Assays:
[1] = system: S6 Ribosomal Protein phosphorylation Ser235/236 in TSC1 null mouse embryo fibroblast (MEF) cells; test: Reverse protein array assay, S6 Ribosomal Protein phosphorylation Ser235/236 in TSC1 null MEF cells; assay type: cell-based; settings: 1 h, pS6 ribosomal protein Ser235/236, 60 minutes incubation, read-out: p-S6 IC50
Summary of the method: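 TSC1−/− MEFs, seeded and held ≥20 h at 37 °C/5% CO2, were exposed to 8-step serial compound dilutions (0.02% DMSO final; DMSO vehicle control) for 60 min at 37 °C. Cells were then lysed on ice for 10 min and lysates spotted onto reverse protein array chips.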

PI3K gamma = target: T1, PI3K gamma (Homo sapiens, UniProt P48736); test: PI3K gamma kinase assay (Kinase-Glo luminescence); assay type: biochemical
T1 construct: His tag (C); made in house; host or cells: baculovirus (pVL1393); Tn5 or TiniPro insect cells; construct from Roger Williams lab, MRC LMB
Summary of the method: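 PI3Kγ (150 nM) reaction run 120 min at room temperature with phosphatidylinositol substrate (10 μg/mL) and ATP (1 μM) in Tris pH 7.5 buffer containing MgCl2, NaCl, CHAPS and DTT. Remaining ATP detected by Kinase-Glo luminescence; 8 concentrations per compound, IC50 from 4-parameter curve fitting.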

[2] = Cellular CaCo2 permeability assay from apical to basal (A-B); assay type: in vitro ADME; settings: human, Caco-2, read-out: Pe A-B (permeability)
Source text: The permeability in 10^−6 cm/s of compounds of formula (I) have been confirmed for selected example using a cellular CaCo2 permeability assay from apical to basal (A-B): […]

T1 sequence (P48736 144-1102 limits assumed): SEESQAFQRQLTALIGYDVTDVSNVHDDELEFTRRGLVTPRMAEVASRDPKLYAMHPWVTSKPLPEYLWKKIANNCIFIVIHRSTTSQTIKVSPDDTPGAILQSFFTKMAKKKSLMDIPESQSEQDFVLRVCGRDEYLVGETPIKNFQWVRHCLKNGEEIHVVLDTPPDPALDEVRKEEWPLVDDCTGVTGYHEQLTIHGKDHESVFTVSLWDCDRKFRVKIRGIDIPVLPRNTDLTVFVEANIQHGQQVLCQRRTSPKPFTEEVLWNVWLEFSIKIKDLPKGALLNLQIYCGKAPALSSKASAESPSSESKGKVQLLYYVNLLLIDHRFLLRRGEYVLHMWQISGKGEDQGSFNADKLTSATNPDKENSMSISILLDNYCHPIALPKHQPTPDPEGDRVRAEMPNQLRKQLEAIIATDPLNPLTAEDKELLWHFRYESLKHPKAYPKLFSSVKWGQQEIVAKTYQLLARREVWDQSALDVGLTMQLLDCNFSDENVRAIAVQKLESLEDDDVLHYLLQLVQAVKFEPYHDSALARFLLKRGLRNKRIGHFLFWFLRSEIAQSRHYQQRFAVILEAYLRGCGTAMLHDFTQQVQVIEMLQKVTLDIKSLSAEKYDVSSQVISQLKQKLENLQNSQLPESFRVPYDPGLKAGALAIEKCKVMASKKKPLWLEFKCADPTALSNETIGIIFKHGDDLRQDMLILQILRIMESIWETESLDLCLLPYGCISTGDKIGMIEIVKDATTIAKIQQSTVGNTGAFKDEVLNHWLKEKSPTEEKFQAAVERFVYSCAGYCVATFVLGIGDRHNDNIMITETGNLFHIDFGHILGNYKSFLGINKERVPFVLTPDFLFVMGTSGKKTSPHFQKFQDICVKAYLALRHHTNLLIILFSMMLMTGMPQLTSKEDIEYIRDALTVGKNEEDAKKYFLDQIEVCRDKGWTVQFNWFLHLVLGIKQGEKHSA

SMILES	IC50 [1]	IC50 (PI3K gamma)	Papp A→B [2]
COc1ccc(-c2ccc3ncc4c(c3c2)n(-c2cn(C(C)C)nc2C)c(=O)n4C)cc1OC [Example 1.5, 8-(3,4-Dimethoxy-phenyl)-1-(1-isopropyl-3-methyl-1H-pyrazol-4-yl)-3-methyl-1,3-dihydro-imidazo[4,5-c]quinolin-2-one]	< 5 nM	132 nM	
CCn1cc(-n2c(=O)n(C)c3cnc4ccc(-c5ccc(OC)c(OC)c5)cc4c32)c(C)n1 [Example 1.6, 8-(3,4-Dimethoxy-phenyl)-1-(1-ethyl-3-methyl-1H-pyrazol-4-yl)-3-methyl-1,3-dihydro-imidazo[4,5-c]quinolin-2-one]	< 5 nM	157 nM	31.6 ×10⁻⁶ cm/s
CCOc1ccc(-c2ccc3ncc4c(c3c2)n(-c2cn(CC(=O)N(C)C)nc2C)c(=O)n4C)cn1 [Example 3.9, 2-{4-[8-(6-Ethoxy-pyridin-3-yl)-3-methyl-2-oxo-2,3-dihydro-imidazo[4,5-c]quinolin-1-yl]-3-methyl-pyrazol-1-yl}-N,N-dimethyl-acetamide]	5 nM		14.8 ×10⁻⁶ cm/s
Cc1cc(-n2c(=O)n(C)c3cnc4ccc(-c5ccc(N(C)C)nc5)cc4c32)n(C)n1 [Example 4.6, 8-(6-Dimethylamino-pyridin-3-yl)-1-(2,5-dimethyl-2H-pyrazol-3-yl)-3-methyl-1,3-dihydro-imidazo[4,5-c]quinolin-2-one]		481 nM	
Cc1nn(C)cc1-n1c(=O)n(C)c2cnc3ccc(-c4ccc(N5CCC5)nc4)cc3c21 [Example 5.1, 8-(6-Azetidin-1-yl-pyridin-3-yl)-1-(1,3-dimethyl-1H-pyrazol-4-yl)-3-methyl-1,3-dihydro-imidazo[4,5-c]quinolin-2-one]	10 nM	309 nM	
Cc1nn(C)cc1-n1c(=O)n(C)c2cnc3ccc(-c4ccc(C(N)=O)nc4)cc3c21 [Example 14, 5-[1-(1,3-Dimethyl-1H-pyrazol-4-yl)-3-methyl-2-oxo-2,3-dihydro-1H-imidazo[4,5-c]quinolin-8-yl]-pyridine-2-carboxylic acid amide]	123 nM	212 nM	
CNC(=O)c1ccc(-c2ccc3ncc4c(c3c2)n(-c2c(C)nn(C)c2C)c(=O)n4C)cn1 [Example 15.2, 5-[3-Methyl-2-oxo-1-(1,3,5-trimethyl-1H-pyrazo1-4-yl)-2,3-dihydro-1H-imidazo[4,5-c]quinolin-8-yl]-pyridine-2-carboxylic acid methylamide]		548 nM	
Cc1cncc(-c2ccc3ncc4c(c3c2)n(-c2cn(C)nc2C)c(=O)n4C)c1 [Example 24, 1-(1,3-Dimethyl-1H-pyrazol-4-yl)-3-methyl-8-(5-methyl-pyridin-3-yl)-1,3-dihydro-imidazo[4,5-c]quinolin-2-one]	9 nM	111 nM	
CCOc1ccc(-c2ccc3ncc4c(c3c2)n(-c2c(C)nn(C)c2C)c(=O)n4C)cc1OCC [Example 27.2, 8-(3,4-Diethoxy-phenyl)-3-methyl-1-(1,3,5-trimethyl-1H-pyrazol-4-yl)-1,3-dihydro-imidazo[4,5-c]quinolin-2-one]	234 nM	137 nM	
CCOc1ccc(-c2ccc3ncc4c(c3c2)n(-c2cn(CC)nc2C)c(=O)n4C)cc1OC [Example 29.1, 8-(4-Ethoxy-3-methoxy-phenyl)-1-(1-ethyl-3-methyl-1H-pyrazol-4-yl)-3-methyl-1,3-dihydro-imidazo[4,5-c]quinolin-2-one]	9 nM	69 nM	
Cc1nn(C)cc1-n1c(=O)n(C)c2cnc3ccc(-c4cnc5ccccc5c4)cc3c21 [Example 38, 1-(1,3-Dimethyl-1H-pyrazol-4-yl)-3-methyl-8-quinolin-3-yl-1,3-dihydro-imidazo[4,5-c]quinolin-2-one]	3 nM	123 nM	
Cc1nn(C)cc1-n1c(=O)n(C)c2cnc3ccc(-c4cccc(S(=O)(=O)N5CCCC5)c4)cc3c21 [Example 44, 1-(1,3-Dimethyl-1H-pyrazol-4-yl)-3-methyl-8-[3-(pyrrolidine-1-sulfonyl)-phenyl]-1,3-dihydro-imidazo[4,5-c]quinolin-2-one]	80 nM	237 nM	
Cc1nn(C)cc1-n1c(=O)n(C)c2cnc3ccc(-c4ccc(-n5cccn5)cc4)cc3c21 [Example 51.1, 1-(1,3-Dimethyl-1H-pyrazol-4-yl)-3-methyl-8-(4-pyrazol-1-yl-phenyl)-1,3-dihydro-imidazo[4,5-c]quinolin-2-one]	5 nM	213 nM	
CCOc1cncc(-c2ccc3ncc4c(c3c2)n(-c2cn(CC(=O)N(C)C)nc2C)c(=O)n4C)c1 [Example 56.2, 2-{4-[8-(5-Ethoxy-pyridin-3-yl)-3-methyl-2-oxo-2,3-dihydro-imidazo[4,5-c]quinolin-1-yl]-3-methyl-pyrazol-1-yl}-N,N-dimethyl-acetamide]	10 nM	199 nM	
CCOc1ncc(-c2ccc3ncc4c(c3c2)n(-c2cn(C)nc2C)c(=O)n4C)cc1N(C)C(C)=O [Example 63, N-{5-[1-(1,3-Dimethyl-1H-pyrazol-4-yl)-3-methyl-2-oxo-2,3-dihydro-1H-imidazo[4,5-c]quinolin-8-yl]-2-ethoxy-pyridin-3-yl}-N-methyl-acetamide]	13.4 nM	816 nM	
Cc1ncc(-c2ccc3ncc4c(c3c2)n(-c2cn(C)nc2C)c(=O)n4C)cc1NS(C)(=O)=O [Example 76, N-{5-[1-(1,3-Dimethyl-1H-pyrazol-4-yl)-3-methyl-2-oxo-2,3-dihydro-1H-imidazo[4,5-c]quinolin-8-yl]-2-methyl-pyridin-3-yl}-methanesulfonamide]	200 nM	96 nM	
CCNc1cc(-c2ccc3ncc4c(c3c2)n(-c2cn(C)nc2Cl)c(=O)n4C)cnc1C [Example 87.2, 1-(3-Chloro-1-methyl-1H-pyrazol-4-yl)-8-(5-ethylamino-6-methyl-pyridin-3-yl)-3-methyl-1,3-dihydro-imidazo[4,5-c]quinolin-2-one]	1 nM		29.9 ×10⁻⁶ cm/s
COC(=O)c1ccc(-c2ccc3ncc4c(c3c2)n(-c2cn(C)nc2C)c(=O)n4C)cn1 [Example 100, 5-[1-(1,3-Dimethyl-1H-pyrazol-4-yl)-3-methyl-2-oxo-2,3-dihydro-1H-imidazo[4,5-c]quinolin-8-yl]-pyridine-2-carboxylic acid methyl ester]	4 nM	287 nM	
COCc1ccc(-c2ccc3ncc4c(c3c2)n(-c2cn(C(C)C)nc2C)c(=O)n4C)cn1 [Example 105, 1-(1-Isopropyl-3-methyl-1H-pyrazol-4-yl)-8-(6-methoxymethyl-pyridin-3-yl)-3-methyl-1,3-dihydro-imidazo[4,5-c]quinolin-2-one]		310 nM	
Cc1nn(C)cc1-n1c(=O)n(C)c2cnc3ccc(-c4ccc(OCCCO)nc4)cc3c21 [Example 108, 1-(1,3-Dimethyl-1H-pyrazol-4-yl)-8-[6-(3-hydroxy-propoxy)-pyridin-3-yl]-3-methyl-1,3-dihydro-imidazo[4,5-c]quinolin-2-one]	17 nM	535 nM	
COc1ccc(-c2ccc3ncc4[nH]c(=O)n(-c5cn(C)nc5C)c4c3c2)cn1 [Example 109, 1-(1,3-Dimethyl-1H-pyrazol-4-yl)-8-(6-methoxy-pyridin-3-yl)-1,3-dihydro-imidazo[4,5-c]quinolin-2-one]	11 nM	286 nM	
Cc1nn(C)cc1-n1c(=O)n(C)c2cnc3ccc(-c4cnc5c(ccn5C)c4)cc3c21 [Example 116, 1-(1,3-Dimethyl-1H-pyrazol-4-yl)-3-methyl-8-(1-methyl-1H-pyrrolo[2,3-b]pyridin-5-yl)-1,3-dihydro-imidazo[4,5-c]quinolin-2-one]	6 nM	236 nM	
CNC(=O)c1cc(-c2ccc3ncc4c(c3c2)n(-c2cn(C)nc2C)c(=O)n4C)cnc1OC [Example 125.1, 5-[1-(1,3-Dimethyl-1H-pyrazol-4-yl)-3-methyl-2-oxo-2,3-dihydro-1H-imidazo[4,5-c]quinolin-8-yl]-2-methoxy-N-methyl-nicotinamide]	2 nM	363 nM	
COc1ncc(-c2ccc3ncc4c(c3c2)n(-c2cn(C)nc2C)c(=O)n4C)cc1N [Example 127, 8-(5-Amino-6-methoxy-pyridin-3-yl)-1-(1,3-dimethyl-1H-pyrazol-4-yl)-3-methyl-1,3-dihydro-imidazo[4,5-c]quinolin-2-one]	3 nM	121 nM	
CCNc1cc(-c2ccc3ncc4c(c3c2)n(-c2cn(CC)nc2C)c(=O)n4C)cnc1CO [Example 155.2, 8-(5-Ethylamino-6-hydroxymethyl-pyridin-3-yl)-1-(1-ethyl-3-methyl-1H-pyrazol-4-yl)-3-methyl-1,3-dihydro-imidazo[4,5-c]quinolin-2-one]	1 nM		10.9 ×10⁻⁶ cm/s
Cc1nn(C)cc1-n1c(=O)n(C)c2cnc3ccc(-c4cncc(N5CCOCC5)c4)cc3c21 [Example 175.1, 1-(1,3-Dimethyl-1H-pyrazol-4-yl)-3-methyl-8-(5-morpholin-4-yl-pyridin-3-yl)-1,3-dihydro-imidazo[4,5-c]quinolin-2-one]	1 nM		7.8 ×10⁻⁶ cm/s
Cc1nn(C)cc1-n1c(=O)n(C)c2cnc3ccc(-c4cncc(N5CCC5)c4)cc3c21 [Example 179, 8-(5-Azetidin-1-yl-pyridin-3-yl)-1-(1,3-dimethyl-1H-pyrazol-4-yl)-3-methyl-1,3-dihydro-imidazo[4,5-c]quinolin-2-one]	10 nM		16 ×10⁻⁶ cm/s

Reference: patent US20140005163A1 (NOVARTIS AG, priority 2010, published 2014)
